# Test results published in patent publication US20130303509A1, “NAMPT INHIBITORS” (AbbVie Inc., priority 2012, published 2013).
# pIC50: −log10 of the molar value.
# System: activated T cells
# Experiment: not given
# Details: cited from earlier work
row,SMILES,proliferation and apoptosis of activated T cells
1,O=C(/C=C/c1cccnc1)NCCCCC1CCN(C(=O)c2ccccc2)CC1 [FK866],selectively block proliferation and induce apoptosis

# System: not given
# Experiment: not given
# Details: collagen induced arthritis; cited from earlier work
row,SMILES,efficacy in animal models of arthritis
1,O=C(/C=C/c1cccnc1)NCCCCC1CCN(C(=O)c2ccccc2)CC1 [FK866],efficacious

# System: PC3 cells
# Experiment: NAMPT Cell Proliferation Assay
# Assay type: cell-based
# Details: Homo sapiens, PC-3, 120 h, 5 days incubation, cell viability by Cell Titer Glo
# Outline: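 Seeded at 500 cells/well in RPMI with 10% heat-inactivated FBS and left to attach overnight at 37° C, 5% CO2. Compounds were added as 10-fold dilutions […] for 5 days, then viability was read by CellTiter-Glo. IC50s came from sigmoidal fits of percent inhibition.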
row,SMILES,pIC50
1,"Cc1ccc(N2CC(C(=O)Nc3ccc(C4CCN(C(=O)c5ccccc5F)CC4)cc3)C2)nn1 [Example 851, N-{4-[1-(2-fluorobenzoyl)piperidin-4-yl]phenyl}-1-(6-methylpyridazin-3-yl)azetidine-3-carboxamide]",8.56
2,"Cc1ccc(N2CC(C(=O)Nc3ccc(C4CCN(C(=O)C(C)(C)C)CC4)cc3)C2)nn1 [Example 852, N-{4-[1-(2,2-dimethylpropanoyl)piperidin-4-yl]phenyl}-1-(6-methylpyridazin-3-yl)azetidine-3-carboxamide]",7.91
3,"O=C(Nc1ccc(C2(F)CCN(C(=O)OCc3ccccc3)CC2)cc1)C1CN(c2ccc(Cl)nn2)C1 [Example 853, benzyl 4-[4-({[1-(6-chloropyridazin-3-yl)azetidin-3-yl]carbonyl}amino)phenyl]-4-fluoropiperidine-1-carboxylate]",< 5.00
4,"O=C(Nc1ccc(C2(O)CCN(C(=O)OCc3ccccc3)CC2)cc1)C1CN(c2ccc(Cl)nn2)C1 [Example 854, benzyl 4-[4-({[1-(6-chloropyridazin-3-yl)azetidin-3-yl]carbonyl}amino)phenyl]-4-hydroxypiperidine-1-carboxylate]",< 5.00
5,"O=C(NC1CN(c2cccnn2)C1)c1ccc(C2CCN(C(=O)CCC(F)(F)F)CC2)s1 [Example 855, N-[1-(pyridazin-3-yl)azetidin-3-yl]-5-[1-(4,4,4-trifluorobutanoyl)piperidin-4-yl]thiophene-2-carboxamide]",6.13
6,"O=C(NC1CN(c2cccnn2)C1)c1ccc(C2CCN(C(=O)C3CC3)CC2)s1 [Example 856, 5-[1-(cyclopropylcarbonyl)piperidin-4-yl]-N-[1-(pyridazin-3-yl)azetidin-3-yl]thiophene-2-carboxamide]",6.14
7,"O=C(Nc1ccc(C2(F)CCN(C(=O)c3ccccc3F)CC2)cc1)C1CN(c2cccnn2)C1 [Example 857, N-{4-[4-fluoro-1-(2-fluorobenzoyl)piperidin-4-yl]phenyl}-1-(pyridazin-3-yl)azetidine-3-carboxamide]",8.60
8,"CC(C)C(=O)N1CCC(c2ccc(NC(=O)C3CN(c4cccnn4)C3)c(F)c2)CC1 [Example 858, N-{2-fluoro-4-[1-(2-methylpropanoyl)piperidin-4-yl]phenyl}-1-(pyridazin-3-yl)azetidine-3-carboxamide]",8.36
9,"CC(C)(C)C(=O)N1CCC(c2ccc(NC(=O)C3CN(c4cccnn4)C3)c(F)c2)CC1 [Example 859, N-{4-[1-(2,2-dimethylpropanoyl)piperidin-4-yl]-2-fluorophenyl}-1-(pyridazin-3-yl)azetidine-3-carboxamide]",8.57
10,"O=C(Nc1ccc(C2CCN(C(=O)C3CC3)CC2)cc1F)C1CN(c2cccnn2)C1 [Example 860, N-{4-[1-(cyclopropylcarbonyl)piperidin-4-yl]-2-fluorophenyl}-1-(pyridazin-3-yl)azetidine-3-carboxamide]",8.00
11,"CC1(C(=O)N2CCC(c3ccc(NC(=O)C4CN(c5cccnn5)C4)c(F)c3)CC2)CC1 [Example 861, N-(2-fluoro-4-{1-[(1-methylcyclopropyl)carbonyl]piperidin-4-yl}phenyl)-1-(pyridazin-3-yl)azetidine-3-carboxamide]",8.12
12,"O=C(Nc1ccc(C2CCN(C(=O)CC3CC3)CC2)cc1F)C1CN(c2cccnn2)C1 [Example 862, N-{4-[1-(cyclopropylacetyl)piperidin-4-yl]-2-fluorophenyl}-1-(pyridazin-3-yl)azetidine-3-carboxamide]",8.07
13,"O=C(Nc1ccc(C2(F)CCN(C(=O)c3ccccc3)CC2)cc1)C1CN(c2cccnn2)C1 [Example 863, N-[4-(1-benzoyl-4-fluoropiperidin-4-yl)phenyl]-1-(pyridazin-3-yl)azetidine-3-carboxamide]",8.25
14,"CC(C)(C)C(=O)N1CCC(F)(c2ccc(NC(=O)C3CN(c4cccnn4)C3)cc2)CC1 [Example 864, N-{4-[1-(2,2-dimethylpropanoyl)-4-fluoropiperidin-4-yl]phenyl}-1-(pyridazin-3-yl)azetidine-3-carboxamide]",8.28
15,"COCCn1nc(C(C)(C)C)cc1-c1ccc(NC(=O)C2CN(c3cccnn3)C2)cc1 [Example 865, N-{4-[3-tert-butyl-1-(2-methoxyethyl)-1H-pyrazol-5-yl]phenyl}-1-(pyridazin-3-yl)azetidine-3-carboxamide]",8.39

# More lines, now with the values ahead:
row,pIC50,SMILES
1,8.10,"CCCCn1nc(C(C)(C)C)cc1-c1ccc(NC(=O)C2CN(c3cccnn3)C2)cc1 [Example 866, N-[4-(1-butyl-3-tert-butyl-1H-pyrazol-5-yl)phenyl]-1-(pyridazin-3-yl)azetidine-3-carboxamide]"
2,8.11,"CC(C)(C)c1cc(-c2ccc(NC(=O)C3CN(c4cccnn4)C3)cc2)n(CC2CCOCC2)n1 [Example 867, N-{4-[3-tert-butyl-1-(tetrahydro-2H-pyran-4-ylmethyl)-1H-pyrazol-5-yl]phenyl}-1-(pyridazin-3-yl)azetidine-3-carboxamide]"
3,8.64,"O=C(Nc1ccc(C2CCN(C(=O)c3ccccc3F)CC2)cc1F)C1CN(c2ccnnc2)C1 [Example 868, N-{2-fluoro-4-[1-(2-fluorobenzoyl)piperidin-4-yl]phenyl}-1-(pyridazin-4-yl)azetidine-3-carboxamide]"
4,8.70,"O=C(Nc1ccc(C2CCN(C(=O)c3ccccc3)CC2)cc1F)C1CN(c2ccnnc2)C1 [Example 869, N-[4-(1-benzoylpiperidin-4-yl)-2-fluorophenyl]-1-(pyridazin-4-yl)azetidine-3-carboxamide]"
5,8.49,"CC(C)(C)C(=O)N1CCC(c2ccc(NC(=O)C3CN(c4ccnnc4)C3)c(F)c2)CC1 [Example 870, N-{4-[1-(2,2-dimethylpropanoyl)piperidin-4-yl]-2-fluorophenyl}-1-(pyridazin-4-yl)azetidine-3-carboxamide]"
6,8.44,"CC(C)(C)CC(=O)N1CCC(c2ccc(NC(=O)C3CN(c4ccnnc4)C3)c(F)c2)CC1 [Example 871, N-{4-[1-(3,3-dimethylbutanoyl)piperidin-4-yl]-2-fluorophenyl}-1-(pyridazin-4-yl)azetidine-3-carboxamide]"
7,7.63,"O=C(Nc1ccc(C2CCN(C(=O)CCC(F)(F)F)CC2)cc1F)C1CN(c2ccnnc2)C1 [Example 872, N-{2-fluoro-4-[1-(4,4,4-trifluorobutanoyl)piperidin-4-yl]phenyl}-1-(pyridazin-4-yl)azetidine-3-carboxamide]"

# System: not given
# Experiment: not given
# Details: model of T-cell mediated autoimmune disorders; cited from earlier work
row,SMILES,manifestations of experimental autoimmune encephalomyelitis
1,O=C(/C=C/c1cccnc1)NCCCCC1CCN(C(=O)c2ccccc2)CC1 [FK866],ameliorated the manifestations
